How the values were obtained:
[1] = biological target: Acetylcholinesterase (Electrophorus electricus) (UniProt O42275); settings: at 2 mg/mL
Description: Inhibition of electric eel AChE at 2 mg/ml by Ellman's method

[2] = biological target: Cholinesterase (Equus caballus) (UniProt P81908); settings: at 2 mg/mL
Sequence of Cholinesterase (Equus caballus) (P81908 whole entry): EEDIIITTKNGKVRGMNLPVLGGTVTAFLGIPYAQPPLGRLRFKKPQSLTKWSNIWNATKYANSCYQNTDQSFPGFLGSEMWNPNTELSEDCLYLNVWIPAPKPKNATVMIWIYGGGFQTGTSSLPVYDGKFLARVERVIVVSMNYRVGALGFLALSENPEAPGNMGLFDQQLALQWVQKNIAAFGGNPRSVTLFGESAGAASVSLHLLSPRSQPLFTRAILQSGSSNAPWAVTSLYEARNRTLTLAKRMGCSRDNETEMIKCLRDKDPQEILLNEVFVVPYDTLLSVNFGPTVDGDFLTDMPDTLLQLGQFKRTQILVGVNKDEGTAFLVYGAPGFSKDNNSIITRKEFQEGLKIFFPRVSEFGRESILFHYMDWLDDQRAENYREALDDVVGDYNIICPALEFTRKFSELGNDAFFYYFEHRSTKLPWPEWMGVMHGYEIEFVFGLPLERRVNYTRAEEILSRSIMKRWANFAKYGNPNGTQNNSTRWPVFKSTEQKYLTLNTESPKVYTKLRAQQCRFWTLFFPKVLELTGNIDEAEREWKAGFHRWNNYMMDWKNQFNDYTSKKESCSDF
Description: Inhibition of horse BChE at 2 mg/ml by Ellman's method

Sequence of Acetylcholinesterase (Electrophorus electricus) (O42275 24-633 limits assumed): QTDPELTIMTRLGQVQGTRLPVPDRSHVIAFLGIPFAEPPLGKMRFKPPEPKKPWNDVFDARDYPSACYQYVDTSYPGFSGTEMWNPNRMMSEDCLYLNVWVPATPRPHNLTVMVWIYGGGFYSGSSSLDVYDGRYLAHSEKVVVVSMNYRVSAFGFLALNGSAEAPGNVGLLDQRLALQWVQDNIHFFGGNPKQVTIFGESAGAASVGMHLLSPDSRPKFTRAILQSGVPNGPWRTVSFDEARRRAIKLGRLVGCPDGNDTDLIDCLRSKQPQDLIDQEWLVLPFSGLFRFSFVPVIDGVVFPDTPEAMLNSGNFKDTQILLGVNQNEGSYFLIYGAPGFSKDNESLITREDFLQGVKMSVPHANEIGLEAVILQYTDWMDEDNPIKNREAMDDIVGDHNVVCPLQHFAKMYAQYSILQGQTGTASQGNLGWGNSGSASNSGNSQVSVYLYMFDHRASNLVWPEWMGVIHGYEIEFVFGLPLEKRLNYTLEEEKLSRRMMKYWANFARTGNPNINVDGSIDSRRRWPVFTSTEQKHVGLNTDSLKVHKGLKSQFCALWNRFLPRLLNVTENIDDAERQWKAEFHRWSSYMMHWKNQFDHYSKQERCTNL

In the case of `CO[C@@H]1[C@@H](OC)[C@H](C)[C@@](O)(CC(=O)O)O[C@H]1[C@H](C)[C@H]1O[C@@]2(CC[C@@](C)([C@H]3CC[C@@](C)([C@@H]4O[C@@H]([C@H]5O[C@](C)(O)[C@H](C)C[C@@H]5C)C[C@@H]4O[C@@H]4C[C@H](OC)[C@@H](OC)[C@H](C)O4)O3)O2)C[C@H](O)[C@H]1C`, the inhibition [1] is reported as 22.7% and the inhibition [2] is reported as -3.8%.

With `C[C@@H]1O[C@H](C[N+](C)(C)C)C[C@H]1O` the inhibition [1] was -6.43% and the inhibition [2] was -6.38%.

With `C[C@@H]1Cc2c(Cl)cc(C(=O)N[C@@H](Cc3ccccc3)C(=O)O)c(O)c2C(=O)O1` the inhibition [1] was -6.4% and the inhibition [2] was 8.75%.

`COc1ccc2c3c4n(c2c1)[C@H](C=C(C)C)OOC(C)(C)C[C@@H]4N1C(=O)[C@@H]2CCCN2C(=O)[C@]1(O)[C@H]3O` was tested, and the inhibition [1] was 1.5% and the inhibition [2] was 18%.

`CC1=CC(=O)C2=C(C)C[C@H](O)[C@@H]3[C@H](OC(=O)[C@H]3C)[C@@H]12` showed an inhibition [1] of 29.5% and an inhibition [2] of 2.68%.

In the case of `OC[C@H]1O[C@@H](O[C@@H]2OC=C[C@H]3[C@H](O)[C@@H]4O[C@]4(CO)[C@@H]23)[C@H](O)[C@@H](O)[C@@H]1O`, the inhibition [1] is reported as 11.3% and the inhibition [2] is reported as -5.36%.

Work on `COc1cc([C@@H]2c3cc4c(cc3[C@@H](O)[C@H]3COC(=O)[C@H]23)OCO4)cc(OC)c1O` yielded an inhibition [1] of 6.34% and an inhibition [2] of -7.02%.

Compound `O=C1C=C2C(=CCOC2O)O1` (stereo unspecified) has an inhibition [1] of 5.33% and an inhibition [2] of -1.78%.

`CCCCCCCCCCC1=C(C)C(=O)C(OC)=C(OC)C1=O` gave an inhibition [1] of 21.8% and an inhibition [2] of 0.01%.

For `O=C(CCc1ccc(O)cc1)c1c(O)cc(O)cc1O[C@@H]1O[C@H](CO)[C@@H](O)[C@H](O)[C@H]1O`, the inhibition [1] was -6.94% and the inhibition [2] was 5.38%.

With `O=c1c(O[C@@H]2O[C@H](CO)[C@@H](O)[C@H](O)[C@H]2O)c(-c2ccc(O)c(O)c2)oc2cc(O)cc(O)c12` the inhibition [1] was 0.12% and the inhibition [2] was 2.54%.

With `O=C(O)/C=C/c1ccc(O)c(O)c1` the inhibition [1] was 2.2% and the inhibition [2] was 0.67%.

`COc1ccc(C[C@H](N)C(=O)N[C@H]2[C@@H](O)[C@H](n3cnc4c(N(C)C)ncnc43)O[C@@H]2CO)cc1` was tested, and the inhibition [1] was -7.92% and the inhibition [2] was -9.98%.

`O=C1C=C2C=C[C@@H]3C[C@@]2(O1)[C@H]1CCCCN31` showed an inhibition [1] of 7.44% and an inhibition [2] of 6.85%.

`O=c1c(-c2ccc(O)cc2)coc2cc(O)cc(O)c12` showed an inhibition [1] of 7.3% and an inhibition [2] of 10.5%.

In the case of `C[N+](C)(C)CC(O)CC(=O)O` (racemic), the inhibition [1] is reported as -6.56% and the inhibition [2] is reported as -2.91%.

Work on `CCC[C@@H]1C[C@@H](C(=O)N[C@@H]([C@H]2O[C@H](SC)[C@H](O)[C@@H](O)[C@H]2O)[C@@H](C)O)N(C)C1` yielded an inhibition [1] of -3.63% and an inhibition [2] of -2.36%.

Work on `C=C[C@]12CN(C)[C@@H]3[C@H]4CO[C@H](C[C@H]41)[C@]1(C(=O)Nc4ccccc41)[C@@H]32` yielded an inhibition [1] of 6.89% and an inhibition [2] of 31.1%.

In the case of `C[C@@H]1[C@H](O)[C@@H](C)/C=C/C=C/C=C/C=C/C=C/C=C/C=C/[C@H](O[C@@H]2O[C@H](C)[C@@H](O)[C@H](N)[C@@H]2O)C[C@@H]2O[C@](O)(C[C@@H](O)C[C@@H](O)[C@H](O)CC[C@@H](O)C[C@@H](O)CC(=O)O[C@H]1C)C[C@H](O)[C@H]2C(=O)O`, the inhibition [1] is reported as 8.91% and the inhibition [2] is reported as 11.9%.

With `COc1ccc(-c2oc3cc(O)cc(O)c3c(=O)c2O)cc1O` the inhibition [1] was 25.9% and the inhibition [2] was 3.18%.

Work on `C[C@@H]1O[C@@H](OC[C@H]2O[C@@H](Oc3c(-c4ccc(O)c(O)c4)oc4cc(O)cc(O)c4c3=O)[C@H](O)[C@@H](O)[C@@H]2O)[C@H](O)[C@H](O)[C@H]1O` yielded an inhibition [1] of -0.25% and an inhibition [2] of 4.32%.

With `C[C@H]1[C@H](C)CC[C@]2(C(=O)O)CC[C@]3(C)C(=CC[C@@H]4[C@@]5(C)C[C@@H](O)[C@H](O)[C@@](C)(CO)[C@@H]5[C@H](O)C[C@]43C)[C@H]12` the inhibition [1] was -1.33% and the inhibition [2] was -7.93%.

In the case of `O=C1CCC[C@@H]2[C@H]3CCCN4CCC[C@@H](CN12)[C@@H]34`, the inhibition [1] is reported as -1.14% and the inhibition [2] is reported as 22.4%.

Work on `COc1cc(=O)oc(/C=C/C=C/C=C/C(C)=C/[C@@]2(C)O[C@H](C)[C@](C)(O)[C@H]2O)c1C` yielded an inhibition [1] of 27.1% and an inhibition [2] of 16.6%.

`CO[C@H]1/C=C/O[C@@]2(C)Oc3c(C)c(O)c4c(O)c(cc(O)c4c3C2=O)NC(=O)/C(C)=C\C=C\[C@H](C)[C@H](O)[C@@H](C)[C@@H](O)[C@@H](C)[C@H](OC(C)=O)[C@@H]1C` was tested, and the inhibition [1] was -6.18% and the inhibition [2] was -3.13%.

In the case of `O=C1C[C@@H](c2ccc(O)cc2)Oc2cc(O)cc(O)c21`, the inhibition [1] is reported as 7.24% and the inhibition [2] is reported as 0.68%.

`Oc1cc(O)c2c(c1)O[C@H](c1ccc(O)c(O)c1)[C@H](O)C2` was tested, and the inhibition [1] was -4.81% and the inhibition [2] was 0.47%.

`C[C@H]1CC[C@]2(NC1)O[C@H]1C[C@H]3[C@@H]4CC[C@H]5C[C@@H](O)CC[C@]5(C)[C@H]4CC[C@]3(C)[C@H]1[C@@H]2C` gave an inhibition [1] of 11.4% and an inhibition [2] of 6.89%.

In the case of `C=C(C)[C@@H]1CC[C@]2(C(=O)O)CC[C@]3(C)[C@H](CC[C@@H]4[C@@]5(C)CC[C@H](O)C(C)(C)[C@@H]5CC[C@]43C)[C@@H]12`, the inhibition [1] is reported as -5.33% and the inhibition [2] is reported as 2.88%.

Work on `O=C1/C(=C/c2ccc(O)c(O)c2)Oc2cc(O)ccc21` yielded an inhibition [1] of 24.4% and an inhibition [2] of -2.22%.

Work on `O=c1c(O)c(-c2ccc(O)c(O)c2)oc2cc(O)ccc12` yielded an inhibition [1] of 27.5% and an inhibition [2] of 2.06%.

`C[C@@H]1O[C@@H](OC[C@H]2O[C@@H](Oc3cc(O)c4c(c3)O[C@H](c3ccc(O)cc3)CC4=O)[C@H](O)[C@@H](O)[C@@H]2O)[C@H](O)[C@H](O)[C@H]1O` showed an inhibition [1] of 22.1% and an inhibition [2] of -0.5%.

For `O=C1C[C@@H](c2ccc(O)cc2)Oc2cc(O[C@@H]3O[C@H](CO)[C@@H](O)[C@H](O)[C@H]3O)cc(O)c21`, the inhibition [1] was 18.7% and the inhibition [2] was -1.72%.

For `C[C@@H]1O[C@@H](O[C@H]2[C@H](Oc3cc(O)c4c(=O)cc(-c5ccc(O)cc5)oc4c3)O[C@H](CO)[C@@H](O)[C@@H]2O)[C@H](O)[C@H](O)[C@H]1O`, the inhibition [1] was 27.2% and the inhibition [2] was -2.37%.

`CCn1cc(C(=O)O)c(=O)c2ccc(C)nc21` gave an inhibition [1] of 0.82% and an inhibition [2] of -8.73%.

`CC[C@]1(O)C[C@@H]2CN(CCc3c([nH]c4ccccc34)[C@@](C(=O)OC)(c3cc4c(cc3OC)N(C)[C@H]3[C@@](O)(C(=O)OC)[C@H](OC(C)=O)[C@]5(CC)C=CCN6CC[C@]43[C@@H]65)C2)C1` showed an inhibition [1] of 15.4% and an inhibition [2] of 0.36%.

`CCN1C[C@]2(COC)CC[C@H](OC)[C@]34C1[C@H]([C@H](OC)[C@H]23)[C@@]1(OC(C)=O)C[C@H](OC)[C@@]2(O)C[C@@H]4[C@@H]1[C@H]2C(=O)c1ccc(OC)cc1` was tested, and the inhibition [1] was 3.52% and the inhibition [2] was 9.36%.

For `CCCCC1OC(=O)C2=CCCCC21` (stereo unspecified), the inhibition [1] was -0.57% and the inhibition [2] was 4.12%.

Work on `O=C(O)C1=C[C@@H](O)[C@@H](O)[C@H](O)C1` yielded an inhibition [1] of -8.33% and an inhibition [2] of -4.96%.

In the case of `CC(C)=CCC/C(C)=C/COc1ccc2ccc(=O)oc2c1`, the inhibition [1] is reported as -3.79% and the inhibition [2] is reported as 1.5%.

`O=C1c2c(O)cc(O)cc2O[C@H](c2ccc(O)c(O)c2)[C@H]1O` was tested, and the inhibition [1] was 17.8% and the inhibition [2] was 0.97%.

With `CC[C@H](CC[C@@H](C)[C@H]1CC[C@H]2[C@@H]3CC=C4C[C@@H](O)CC[C@]4(C)[C@H]3CC[C@]12C)C(C)C` the inhibition [1] was 13.8% and the inhibition [2] was -1.87%.

`CC[C@@H](C)C(=O)O[C@H]1[C@H](O)[C@H]2[C@@H](CN3C[C@@H](C)CC[C@H]3[C@@]2(C)O)[C@@H]2C[C@]34O[C@]5(O)[C@@H](OC(=O)[C@](C)(O)[C@@H](C)O)CC[C@@]3(C)[C@@H]5[C@@H](OC(C)=O)[C@@H](OC(C)=O)[C@H]4[C@@]21O` was tested, and the inhibition [1] was -5.22% and the inhibition [2] was -0.35%.
